{"source": "ChEMBL document CHEMBL4376834", "about": "“Discovery of 4H-Chromen-4-one Derivatives as a New Class of Selective Rho Kinase (ROCK) Inhibitors, which Showed Potent Activity in ex Vivo Diabetic Retinopathy Models” (J Med Chem, 2019)", "key": {"[1]": {"target": "Maternal embryonic leucine zipper kinase (Homo sapiens, UniProt Q14680)", "test": "Inhibition of recombinant human MELK (1 to 340 residues) using KKLNRTLSFAEPG as substrate incubated for 40 mins in presence of [gamma-33ATP by radiometric scintillation counting analysis"}, "[2]": {"target": "PAS domain-containing serine/threonine-protein kinase (Homo sapiens, UniProt Q96RG2)", "test": "Inhibition of recombinant human PASK (995 to end residues) using KKLNRTLSFAEPG as substrate measured after 40 mins in presence of [gamma33P]ATP by radiometric scintillation counting analysis"}, "[3]": {"target": "TGF-beta receptor type-1 (Homo sapiens, UniProt P36897, T204D)", "test": "Inhibition of recombinant human TGFBR1 T204D mutant (200 to end residues) using casein as substrate incubated for 40 mins in presence of [gamma33P]ATP by radiometric scintillation counting analysis"}, "[4]": {"target": "Homeodomain-interacting protein kinase 2 (Homo sapiens, UniProt Q9H2X6)", "test": "Inhibition of human recombinant HIPK2 I471N mutant (165 to 564 residues) using myelin basic protein as substrate after 40 mins by [gamma-33ATP] radiometric assay"}, "[5]": {"target": "Serine/threonine-protein kinase MAK (Homo sapiens, UniProt P20794)", "test": "Inhibition of recombinant human MAK using RRRFRPASPLRGP as substrate after 120 mins in presence of [gamma-33ATP] by radiometric scintillation counting analysis"}, "[6]": {"target": "Serine/threonine-protein kinase DCLK2 (Homo sapiens, UniProt Q8N568)", "test": "Inhibition of recombinant human DCAMKL2 (376 to end residues) using KKLNRTLSFAEPG as substrate after 40 mins in presence of [gamma-33ATP] by radiometric scintillation counting analysis"}, "[7]": {"target": "Rho-associated protein kinase 2 (Homo sapiens, UniProt O75116)", "test": "Inhibition of recombinant human ROCK2 (11 to 552 residues) using KEAKEKRQEQIAKR as substrate incubated for 40 mins in presence of [gamma-33P]ATP and 10 uM ATP by radiometric scintillation counting analysis"}, "[8]": {"target": "Serine/threonine-protein kinase Sgk1 (Homo sapiens, UniProt O00141, S422D)", "test": "Inhibition of recombinant human SGK S422D mutant (60 to end residues) using GRPRTSSFAEGKK as substrate incubated for 40 mins in presence of [gamma33P]ATP by radiometric scintillation counting analysis"}, "[9]": {"target": "RAC-beta serine/threonine-protein kinase (Homo sapiens, UniProt P31751, S474D)", "test": "Inhibition of recombinant human PKBbeta S474D mutant (120 to end residues) using GRPRTSSFAEGKK as substrate incubated for 40 mins in presence of [gamma33P]ATP by radiometric scintillation counting analysis"}, "[10]": {"target": "Hepatocyte growth factor receptor (Homo sapiens, UniProt P08581, Y1230C)", "test": "Inhibition of recombinant human MET A1209G/V1290L/Y1248C triple mutant (974 to end residues) using KKKGQEEEYVFIE as substrate incubated for 40 mins in presence of [gamma-33ATP by radiometric scintillation counting analysis"}, "[11]": {"test": "Inhibition of human SNRK E97G/P116A double mutant (65 to 409 residues) using KKLRRTLSFAEPG as substrate incubated for 40 mins in presence of [gamma33P]ATP by radiometric scintillation counting analysis"}, "[12]": {"target": "Serine/threonine-protein kinase ICK (Homo sapiens, UniProt Q9UPZ9)", "sequence (Q9UPZ9 whole entry, the tested form may be a part)": "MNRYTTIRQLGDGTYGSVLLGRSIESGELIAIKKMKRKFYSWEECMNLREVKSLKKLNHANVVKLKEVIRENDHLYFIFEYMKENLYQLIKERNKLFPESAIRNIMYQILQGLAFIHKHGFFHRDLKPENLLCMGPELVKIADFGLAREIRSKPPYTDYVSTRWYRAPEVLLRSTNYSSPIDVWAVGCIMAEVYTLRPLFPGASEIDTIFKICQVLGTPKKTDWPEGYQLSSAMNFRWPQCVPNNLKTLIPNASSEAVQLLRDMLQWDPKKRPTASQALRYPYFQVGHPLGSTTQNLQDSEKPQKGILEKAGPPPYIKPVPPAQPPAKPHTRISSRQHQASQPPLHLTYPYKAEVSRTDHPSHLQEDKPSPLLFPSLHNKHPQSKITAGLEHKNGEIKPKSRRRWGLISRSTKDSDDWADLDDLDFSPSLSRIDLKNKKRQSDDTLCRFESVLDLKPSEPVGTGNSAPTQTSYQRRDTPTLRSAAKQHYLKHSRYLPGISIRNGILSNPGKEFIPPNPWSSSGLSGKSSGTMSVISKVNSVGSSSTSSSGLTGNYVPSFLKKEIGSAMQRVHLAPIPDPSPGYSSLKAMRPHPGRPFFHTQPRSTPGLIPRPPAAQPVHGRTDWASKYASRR", "test": "Inhibition of human recombinant ICK (1 to 312 residues) using RRRFRPASPLRGP as substrate after 40 mins by [gamma-33ATP] by radiometric scintillation counting analysis"}, "[13]": {"target": "Receptor-type tyrosine-protein kinase FLT3 (Homo sapiens, UniProt P36888)", "test": "Inhibition of recombinant human FLT3 (564 to end residues) using EAIYAAPFAKKK as substrate after 40 mins in presence of [gamma-33ATP] by radiometric scintillation counting analysis"}, "[14]": {"target": "Serine/threonine-protein kinase TAO3 (Homo sapiens, UniProt Q9H2K8)", "test": "Inhibition of recombinant human TAO3 N47S mutant (1 to 411 residues) using myelin basic protein as substrate incubated for 40 mins in presence of [gamma33P]ATP by radiometric scintillation counting analysis"}, "[15]": {"target": "Calcium/calmodulin-dependent protein kinase type II subunit delta (Homo sapiens, UniProt Q13557)", "sequence (Q13557 whole entry)": "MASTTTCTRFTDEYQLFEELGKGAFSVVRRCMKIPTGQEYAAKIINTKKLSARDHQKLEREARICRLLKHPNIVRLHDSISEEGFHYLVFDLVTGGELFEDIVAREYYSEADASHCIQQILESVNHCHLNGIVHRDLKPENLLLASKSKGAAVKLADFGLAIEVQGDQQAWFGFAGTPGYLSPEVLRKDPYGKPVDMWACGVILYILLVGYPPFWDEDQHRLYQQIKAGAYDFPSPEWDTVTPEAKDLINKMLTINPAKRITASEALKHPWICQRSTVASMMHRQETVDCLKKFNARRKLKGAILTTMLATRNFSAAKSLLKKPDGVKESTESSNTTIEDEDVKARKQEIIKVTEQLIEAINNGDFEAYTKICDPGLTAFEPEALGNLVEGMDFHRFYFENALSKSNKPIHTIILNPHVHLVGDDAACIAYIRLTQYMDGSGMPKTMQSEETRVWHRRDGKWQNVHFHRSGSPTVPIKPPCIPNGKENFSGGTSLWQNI", "test": "Inhibition of recombinant full length human CaMK2delta using calmodulin as substrate incubated for 40 mins in presence of [gamma-33ATP] by radiometric scintillation counting analysis"}, "[16]": {"target": "Serine/threonine-protein kinase B-raf (Homo sapiens, UniProt P15056)", "sequence (P15056 whole entry)": "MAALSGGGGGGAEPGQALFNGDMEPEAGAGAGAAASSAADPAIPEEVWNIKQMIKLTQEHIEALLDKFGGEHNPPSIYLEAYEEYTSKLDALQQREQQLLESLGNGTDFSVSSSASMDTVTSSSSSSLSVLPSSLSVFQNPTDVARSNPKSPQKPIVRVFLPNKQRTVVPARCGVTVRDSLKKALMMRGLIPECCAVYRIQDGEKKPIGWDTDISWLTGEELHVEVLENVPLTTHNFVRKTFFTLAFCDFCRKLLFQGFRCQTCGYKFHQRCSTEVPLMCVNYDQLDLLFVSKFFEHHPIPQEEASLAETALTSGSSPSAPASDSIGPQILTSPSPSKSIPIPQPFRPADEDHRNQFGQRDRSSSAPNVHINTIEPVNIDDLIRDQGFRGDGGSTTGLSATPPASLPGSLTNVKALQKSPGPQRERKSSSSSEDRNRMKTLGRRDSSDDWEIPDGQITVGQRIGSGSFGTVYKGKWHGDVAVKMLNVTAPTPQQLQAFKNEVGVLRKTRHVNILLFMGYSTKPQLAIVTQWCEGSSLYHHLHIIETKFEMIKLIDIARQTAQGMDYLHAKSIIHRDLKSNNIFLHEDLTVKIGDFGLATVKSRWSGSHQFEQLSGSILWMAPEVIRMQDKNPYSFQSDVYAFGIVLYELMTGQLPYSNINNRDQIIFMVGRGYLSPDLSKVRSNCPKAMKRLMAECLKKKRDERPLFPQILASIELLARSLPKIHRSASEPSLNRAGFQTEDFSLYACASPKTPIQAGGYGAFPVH", "test": "Inhibition of recombinant full length human B-Raf (416 to end residues) using myelin basic protein substrate incubated for 40 mins in presence of [gamma-33ATP] by radiometric scintillation counting analysis"}, "[17]": {"target": "Serine/threonine-protein kinase 16 (Homo sapiens, UniProt O75716)", "sequence (O75716 whole entry)": "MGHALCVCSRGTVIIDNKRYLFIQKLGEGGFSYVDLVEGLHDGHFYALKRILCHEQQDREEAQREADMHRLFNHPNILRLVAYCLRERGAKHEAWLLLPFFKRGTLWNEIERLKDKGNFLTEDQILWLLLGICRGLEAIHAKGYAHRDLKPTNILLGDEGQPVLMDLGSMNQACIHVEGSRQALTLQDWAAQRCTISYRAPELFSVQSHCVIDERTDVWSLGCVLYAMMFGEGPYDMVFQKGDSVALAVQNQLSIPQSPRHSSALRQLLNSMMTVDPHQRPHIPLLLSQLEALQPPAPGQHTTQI", "test": "Inhibition of human STK16 in presence of 10 uM ATP by radiometric analysis"}, "[18]": {"target": "Calcium/calmodulin-dependent protein kinase type 1G (Homo sapiens, UniProt Q96NX5)", "sequence (Q96NX5 whole entry)": "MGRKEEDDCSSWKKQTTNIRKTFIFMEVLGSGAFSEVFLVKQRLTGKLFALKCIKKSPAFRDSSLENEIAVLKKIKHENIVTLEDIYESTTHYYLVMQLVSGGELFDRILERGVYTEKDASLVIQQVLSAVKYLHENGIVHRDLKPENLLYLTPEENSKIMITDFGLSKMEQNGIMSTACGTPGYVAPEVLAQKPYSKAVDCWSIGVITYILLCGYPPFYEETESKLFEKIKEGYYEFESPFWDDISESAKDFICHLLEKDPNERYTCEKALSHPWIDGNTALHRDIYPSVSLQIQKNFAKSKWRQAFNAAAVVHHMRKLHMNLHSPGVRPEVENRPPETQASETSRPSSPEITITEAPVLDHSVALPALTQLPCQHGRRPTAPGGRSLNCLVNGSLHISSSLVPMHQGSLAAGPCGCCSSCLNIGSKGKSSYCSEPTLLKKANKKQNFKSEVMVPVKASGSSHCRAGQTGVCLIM", "test": "Inhibition of recombinant full length human CaMK1gamma using KKLRRTLSFAEPG as substrate incubated for 40 mins in presence of [gamma-33ATP] by radiometric scintillation counting analysis"}, "[19]": {"target": "Misshapen-like kinase 1 (Homo sapiens, UniProt Q8N4C8)", "test": "Inhibition of recombinant human MINK (1 to 310 residues) using myelin basic protein as substrate incubated for 40 mins in presence of [gamma-33ATP by radiometric scintillation counting analysis"}, "[20]": {"target": "5'-AMP-activated protein kinase catalytic subunit alpha-1 (Homo sapiens, UniProt Q13131)", "sequence (Q13131 whole entry)": "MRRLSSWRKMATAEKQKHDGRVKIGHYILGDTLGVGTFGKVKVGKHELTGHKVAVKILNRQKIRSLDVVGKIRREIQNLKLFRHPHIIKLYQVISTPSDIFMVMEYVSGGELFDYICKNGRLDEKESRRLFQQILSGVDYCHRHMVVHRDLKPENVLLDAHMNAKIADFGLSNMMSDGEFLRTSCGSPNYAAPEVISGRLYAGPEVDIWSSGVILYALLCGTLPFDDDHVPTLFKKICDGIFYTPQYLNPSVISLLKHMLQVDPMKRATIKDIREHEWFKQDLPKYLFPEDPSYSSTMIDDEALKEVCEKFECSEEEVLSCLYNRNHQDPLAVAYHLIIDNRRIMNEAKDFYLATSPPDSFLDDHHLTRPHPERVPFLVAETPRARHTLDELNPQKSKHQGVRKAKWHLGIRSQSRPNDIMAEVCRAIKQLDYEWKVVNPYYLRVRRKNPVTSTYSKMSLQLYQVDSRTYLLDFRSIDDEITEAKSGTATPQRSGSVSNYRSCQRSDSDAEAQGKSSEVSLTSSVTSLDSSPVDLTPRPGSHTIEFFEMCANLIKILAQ", "test": "Inhibition of human full length AMPKalpha1 recombinant using AMARAASAAALAR as substrate incubated for 40 mins in presence of [gamma-33ATP] by radiometric scintillation counting analysis"}, "[21]": {"target": "Serine/threonine-protein kinase Nek9 (Homo sapiens, UniProt Q8TD19)", "test": "Inhibition of recombinant human NEK9 (1 to 324 residues) using myelin basic protein as substrate measured after 40 mins in presence of [gamma33P]ATP by radiometric scintillation counting analysis"}, "[22]": {"target": "Tyrosine-protein kinase ABL2 (Homo sapiens, UniProt P42684)", "sequence (P42684 whole entry)": "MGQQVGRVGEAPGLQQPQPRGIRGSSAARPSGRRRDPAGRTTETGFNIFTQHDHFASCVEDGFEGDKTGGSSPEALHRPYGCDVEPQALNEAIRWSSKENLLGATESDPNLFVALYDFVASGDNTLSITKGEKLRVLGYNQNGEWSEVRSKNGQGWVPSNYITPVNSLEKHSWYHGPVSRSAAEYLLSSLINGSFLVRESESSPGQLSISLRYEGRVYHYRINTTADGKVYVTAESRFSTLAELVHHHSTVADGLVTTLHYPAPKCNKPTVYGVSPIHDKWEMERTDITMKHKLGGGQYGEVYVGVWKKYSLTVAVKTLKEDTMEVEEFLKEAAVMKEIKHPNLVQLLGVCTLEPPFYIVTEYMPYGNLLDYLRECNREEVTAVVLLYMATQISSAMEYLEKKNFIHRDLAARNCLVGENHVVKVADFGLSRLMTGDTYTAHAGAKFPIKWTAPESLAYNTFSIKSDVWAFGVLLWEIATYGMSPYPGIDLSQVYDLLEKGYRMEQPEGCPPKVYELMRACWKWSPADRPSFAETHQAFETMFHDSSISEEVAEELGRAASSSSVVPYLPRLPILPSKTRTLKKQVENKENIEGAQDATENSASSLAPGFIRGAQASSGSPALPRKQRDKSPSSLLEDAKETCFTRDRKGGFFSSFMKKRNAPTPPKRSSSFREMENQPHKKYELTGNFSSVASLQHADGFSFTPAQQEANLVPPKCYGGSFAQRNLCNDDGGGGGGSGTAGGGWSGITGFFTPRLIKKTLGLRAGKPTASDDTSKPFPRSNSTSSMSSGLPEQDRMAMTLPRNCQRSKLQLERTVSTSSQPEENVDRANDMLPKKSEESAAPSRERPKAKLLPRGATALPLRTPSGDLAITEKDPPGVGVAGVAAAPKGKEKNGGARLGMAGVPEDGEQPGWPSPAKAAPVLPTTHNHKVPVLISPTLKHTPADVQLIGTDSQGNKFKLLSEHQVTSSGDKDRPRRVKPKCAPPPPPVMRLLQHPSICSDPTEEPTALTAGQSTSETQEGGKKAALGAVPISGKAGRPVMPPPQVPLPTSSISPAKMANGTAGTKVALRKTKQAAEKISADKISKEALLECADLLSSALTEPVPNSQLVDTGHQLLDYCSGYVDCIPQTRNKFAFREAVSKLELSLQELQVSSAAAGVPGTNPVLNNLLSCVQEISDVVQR", "test": "Inhibition of human recombinant ARG (48 to end residues) using EAIYAAPFAKKK as substrate incubated for 40 mins in presence of [gamma-33ATP] by radiometric scintillation counting analysis"}, "[23]": {"target": "Mitogen-activated protein kinase kinase kinase kinase 4 (Homo sapiens, UniProt O95819)", "test": "Inhibition of recombinant human MAP4K4 (1 to 328 residues) using RLGRDKYKTLRQI as substrate incubated for 40 mins in presence of [gamma-33ATP by radiometric scintillation counting analysis"}, "[24]": {"target": "Rhodopsin kinase GRK1 (Homo sapiens, UniProt Q15835)", "sequence (Q15835 whole entry)": "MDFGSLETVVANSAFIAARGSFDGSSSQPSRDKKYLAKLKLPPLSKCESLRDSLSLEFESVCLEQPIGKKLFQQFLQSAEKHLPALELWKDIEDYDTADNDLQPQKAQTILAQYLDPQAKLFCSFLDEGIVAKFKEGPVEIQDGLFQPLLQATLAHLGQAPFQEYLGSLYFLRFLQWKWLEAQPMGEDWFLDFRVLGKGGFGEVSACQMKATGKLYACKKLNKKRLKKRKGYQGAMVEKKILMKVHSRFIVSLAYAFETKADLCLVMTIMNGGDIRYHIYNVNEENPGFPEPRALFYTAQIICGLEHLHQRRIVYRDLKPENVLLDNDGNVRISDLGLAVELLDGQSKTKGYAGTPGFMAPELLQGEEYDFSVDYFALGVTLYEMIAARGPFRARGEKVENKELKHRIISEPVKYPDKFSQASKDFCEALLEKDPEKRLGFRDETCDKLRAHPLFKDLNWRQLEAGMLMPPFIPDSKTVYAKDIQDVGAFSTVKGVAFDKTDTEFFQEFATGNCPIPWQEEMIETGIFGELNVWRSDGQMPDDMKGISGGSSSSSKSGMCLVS", "test": "Inhibition of recombinant full length human GRK1 using KKKKERLLDDRHD as substrate after 40 mins in presence of [gamma-33ATP] by radiometric scintillation counting analysis"}, "[25]": {"target": "Serine/threonine-protein kinase 3 (Homo sapiens, UniProt Q13188)", "test": "Inhibition of recombinant human MST2 (2 to end residues) using myelin basic protein as substrate measured after 40 mins in presence of [gamma33P]ATP by radiometric scintillation counting analysis"}}}
{"compound": "CN(C)c1ccc(C(=O)Nc2cccc(NC(=O)COc3ccc4c(=O)ccoc4c3)c2)cc1", "values": [{"measurement": "IC50", "setting": "[1]", "result": "> 10", "unit": "µM"}, {"measurement": "IC50", "setting": "[2]", "result": "> 10", "unit": "µM"}, {"measurement": "IC50", "setting": "[3]", "result": "> 10", "unit": "µM"}, {"measurement": "IC50", "setting": "[4]", "result": "> 10", "unit": "µM"}, {"measurement": "IC50", "setting": "[5]", "result": "> 10", "unit": "µM"}, {"measurement": "IC50", "setting": "[6]", "result": "> 10", "unit": "µM"}, {"measurement": "IC50", "setting": "[7]", "result": 0.003, "unit": "µM"}, {"measurement": "IC50", "setting": "[8]", "result": "> 10", "unit": "µM"}, {"measurement": "IC50", "setting": "[9]", "result": "> 10", "unit": "µM"}, {"measurement": "IC50", "setting": "[10]", "result": "> 10", "unit": "µM"}, {"measurement": "IC50", "setting": "[11]", "result": "> 10", "unit": "µM"}, {"measurement": "IC50", "setting": "[12]", "result": "> 10", "unit": "µM"}, {"measurement": "IC50", "setting": "[13]", "result": "> 10", "unit": "µM"}, {"measurement": "IC50", "setting": "[14]", "result": "> 10", "unit": "µM"}, {"measurement": "IC50", "setting": "[15]", "result": "> 10", "unit": "µM"}, {"measurement": "IC50", "setting": "[16]", "result": "> 10", "unit": "µM"}, {"measurement": "IC50", "setting": "[17]", "result": "> 10", "unit": "µM"}, {"measurement": "IC50", "setting": "[18]", "result": "> 10", "unit": "µM"}, {"measurement": "IC50", "setting": "[19]", "result": "> 10", "unit": "µM"}, {"measurement": "IC50", "setting": "[20]", "result": "> 10", "unit": "µM"}, {"measurement": "IC50", "setting": "[21]", "result": "> 10", "unit": "µM"}, {"measurement": "IC50", "setting": "[22]", "result": "> 10", "unit": "µM"}, {"measurement": "IC50", "setting": "[23]", "result": "> 10", "unit": "µM"}, {"measurement": "IC50", "setting": "[24]", "result": "> 10", "unit": "µM"}, {"measurement": "IC50", "setting": "[25]", "result": "> 10", "unit": "µM"}]}
